# Reference: patent publication US7888005B2, “Inhibitors of macromolecular activity” (priority 2003, dated 2011)
# Experiments:
# [1] = system: E. coli cell (19R/PTZ) strain containing a single chromosomal copy of the wildtype rnpB gene; test: Top agar plate screen of extract dilutions, strain 19R/PTZ; assay type: cell-based; conditions: strain 19R/PTZ (single chromosomal rnpB)
# Description: (§1) Methods. Different strains of E. coli-DH5alpha (DM46 and PTZ/19R) were streaked onto bacto MacConkey agar base plate containing ampicillin at 50 μg/ml. Then a fresh single colony was grown on 5 ml NZY Ap (50 μg/ml) broth at 37° C. overnight. The next day a frozen cell from the above cells was made. 1 ml of a freshly saturated culture was added to a microcentrifuge tube containing 1 ml DMSO (7%). These cells were stored at −80° C. Cells from frozen stocks were streaked out again and one colony from each plate was transferred to 1 ml NZY(amp, 50 μg/ml) broth. The tubes were shaken at 37° C. overnight.
# (§2) Top agar (1% tryptone, 0.8% NaCl, 0.7% agar) was used to distribute cells in a thin layer over the surface of a plate. 100 μl of fresh cell was mixed with 2.5 ml top agar. The mixture was then poured into NZY AP (50 μg/ml). Microtiter dishes containing 96-well, were used to prepare serial dilutions in 10% DMSO (1:5, 1:25, 1:125, 1:625) of extracts. A multi-channel pipeting device was used to add 5 μl extract to the top agar plate. Agar plates containing extract were incubated overnight at 37° C. At the end of incubation, inhibition appeared as clear zone around the place that extract was added. Positive extracts from the initial screens were analyzed further. […]
# [2] = system: strain DM46, which contains the rnpB gene cloned on a high copy plasmid; test: Top agar plate screen of extract dilutions, strain DM46; assay type: cell-based, E. coli; conditions: strain DM46 (multicopy rnpB)
# Description: as §1, §2
# [3] = system: E. coli ribonuclease P RNA; conditions: literature (Vioque 1989; Mikkelsen et al.); cited from earlier work
SMILES,"Inhibition of growth, in words [1]","Inhibition of growth, in words [2]",Inhibition of ribonuclease P RNA reaction [3]
COc1ccc(C[C@H](N)C(=O)N[C@H]2[C@@H](O)[C@H](n3cnc4c(N(C)C)ncnc43)O[C@@H]2CO)cc1 [puromycin],inhibits the growth of both strains,inhibits the growth of both strains,inhibits the catalytic reaction of ribonuclease P RNA
NC[C@@H]1O[C@H](O[C@H]2[C@@H](O)[C@H](O[C@@H]3[C@@H](O)[C@H](N)C[C@H](N)[C@H]3O[C@H]3O[C@H](CN)[C@@H](O)[C@H](O)[C@H]3N)O[C@@H]2CO)[C@H](N)[C@@H](O)[C@@H]1O [Neomycin B],–,–,micromolar concentrations
